*1 amine or outer side, *2 acyl side, *3 side chain or, on linkers, in order; H or OH if unused. Where a SMILES comes first, the peptide text is derived from it. Bridges are numbered along the chain shown (N, C = ends). Roman numbers before positions name the chains, in order. [ ]: non-standard residue; d: D form. Actinocin(9to1) = Cc1c2oc3c(C)ccc(C(=O)[*:1])c3nc-2c(C(=O)[*:2])c(N)c1=O; NMeV = CN[C@H](C(=O)O)C(C)C; Sar = CNCC(=O)O
System: chronic lymphocytic leukemia (CLL) samples classified by expression subtype (Ec-i, EC-m1, EC-m2, EC-m3, EC-m4, EC-o, EC-u1, EC-u2)
Assay: Ex-vivo drug sensitivity (percent viability) of CLL samples compared between expression subtypes (ECs); on Mean viability in the EC: test concentration or dose not given here; on Mean viability in the other ECs: test concentration or dose not given here
Format: cell-based
From the text: An analysis was completed to determine whether the expression clusters (ECs) can be used to predict the resistance and sensitivity of different chronic lymphocytic leukemias to various drugs. […] The expression subtypes were then used with the drug sensitivity data to compare the percent […] of samples in each expression cluster to the percent viability of samples in all other expression clusters.

## C=C(C)[C@H]1Cc2c(ccc3c2O[C@@H]2COc4cc(OC)c(OC)cc4[C@@H]2C3=O)O1 [rotenone]
All ECs other than EC-i
  Mean viability in the other ECs: 0.77
All ECs other than EC-m4
  Mean viability in the other ECs: 0.77
All ECs other than EC-u2
  Mean viability in the other ECs: 0.74
Expression cluster EC-i
  Drug response associated with the EC: Sensitive
  Mean viability in the EC: 0.63
Expression cluster EC-m4
  Drug response associated with the EC: Sensitive
  Mean viability in the EC: 0.67
Expression cluster EC-u2
  Drug response associated with the EC: Resistant
  Mean viability in the EC: 0.92

## CC1(C)CCC(c2ccc(Cl)cc2)=C(CN2CCN(c3ccc(C(=O)NS(=O)(=O)c4ccc(N[C@H](CCN5CCOCC5)CSc5ccccc5)c(S(=O)(=O)C(F)(F)F)c4)cc3)CC2)C1 [navitoclax]
All ECs other than EC-u1
  Mean viability in the other ECs: 0.82
Expression cluster EC-u1
  Drug response associated with the EC: Resistant
  Mean viability in the EC: 0.89

## O=C(Nc1cccc(Nc2ncc(Br)c(NCCc3cnc[nH]3)n2)c1)N1CCCC1 [BX912]
All ECs other than EC-u1
  Mean viability in the other ECs: 1.07
Expression cluster EC-u1
  Drug response associated with the EC: Sensitive
  Mean viability in the EC: 1.05

## C=CCn1c(=O)c2cnc(Nc3ccc(N4CCN(C)CC4)cc3)nc2n1-c1cccc(C(C)(C)O)n1 [MK-1775]
All ECs other than EC-m3
  Mean viability in the other ECs: 1.00
All ECs other than EC-u1
  Mean viability in the other ECs: 1.02
Expression cluster EC-m3
  Drug response associated with the EC: Resistant
  Mean viability in the EC: 1.04
Expression cluster EC-u1
  Drug response associated with the EC: Sensitive
  Mean viability in the EC: 0.98

## COc1cc2nc(-c3cc(F)ccc3O)nc(N[C@@H]3CNC[C@H]3C(C)(C)O)c2cc1OC [CCT241533]
All ECs other than EC-m1
  Mean viability in the other ECs: 1.06
All ECs other than EC-m3
  Mean viability in the other ECs: 1.06
Expression cluster EC-m1
  Drug response associated with the EC: Resistant
  Mean viability in the EC: 1.11
Expression cluster EC-m3
  Drug response associated with the EC: Resistant
  Mean viability in the EC: 1.09

## O=C(CCCCCCC(=O)Nc1ccccc1)NO [vorinostat]
Expression cluster EC-m3
  Drug response associated with the EC: Sensitive

## dasatinib
All ECs other than EC-m1
  Mean viability in the other ECs: 0.73
All ECs other than EC-m3
  Mean viability in the other ECs: 0.72
All ECs other than EC-m4
  Mean viability in the other ECs: 0.70
All ECs other than EC-u1
  Mean viability in the other ECs: 0.79
All ECs other than EC-u2
  Mean viability in the other ECs: 0.75
Expression cluster EC-m1
  Drug response associated with the EC: Resistant
  Mean viability in the EC: 0.90
Expression cluster EC-m3
  Drug response associated with the EC: Resistant
  Mean viability in the EC: 0.87
Expression cluster EC-m4
  Drug response associated with the EC: Resistant
  Mean viability in the EC: 0.89
Expression cluster EC-u1
  Drug response associated with the EC: Sensitive
  Mean viability in the EC: 0.64
Expression cluster EC-u2
  Drug response associated with the EC: Sensitive
  Mean viability in the EC: 0.46

## O=c1cc(N2CCOCC2)oc2c(-c3cccc4c3sc3ccccc34)cccc12 [NU7441]
Expression cluster EC-m4
  Drug response associated with the EC: Resistant
Expression cluster EC-u2
  Drug response associated with the EC: Sensitive

## O=C(Cc1ccc(-c2ccc(OCCN3CCOCC3)cc2)cn1)NCc1ccccc1 [KX2-391]
All ECs other than EC-u1
  Mean viability in the other ECs: 0.91
Expression cluster EC-u1
  Drug response associated with the EC: Sensitive
  Mean viability in the EC: 0.86

## fludarabine
All ECs other than EC-m3
  Mean viability in the other ECs: 0.93
Expression cluster EC-m3
  Drug response associated with the EC: Sensitive
  Mean viability in the EC: 0.82

## Cc1c2oc3c(C)ccc(C(=O)N[C@@H]4C(=O)N[C@H](C(C)C)C(=O)N5CCC[C@H]5C(=O)N(C)CC(=O)N(C)[C@@H](C(C)C)C(=O)O[C@@H]4C)c3nc-2c(C(=O)N[C@@H]2C(=O)N[C@H](C(C)C)C(=O)N3CCC[C@H]3C(=O)N(C)CC(=O)N(C)[C@@H](C(C)C)C(=O)O[C@@H]2C)c(N)c1=O [actinomycin D] (I: T[dV]P[Sar][NMeV] / II: T[dV]P[Sar][NMeV]; ester I:1-I:C, II:1-II:C; linker I:N-II:N via Actinocin(9to1))
All ECs other than EC-u1
  Mean viability in the other ECs: 0.27
Expression cluster EC-u1
  Drug response associated with the EC: Resistant
  Mean viability in the EC: 0.37

## CC[C@H]1CN2CCc3cc(OC)c(OC)cc3[C@@H]2C[C@@H]1C[C@H]1NCCc2cc(O)c(OC)cc21 [cephaeline]
All ECs other than EC-u2
  Mean viability in the other ECs: 0.82
Expression cluster EC-u2
  Mean viability in the EC: 0.72
